Data from patent US5374711A, “Chemical modification of 2"-amino group in elsamicin a” (Bristol-Myers Squibb Company, priority 1993, dated 1994).
In brackets after ≈: the same amount, converted by molar mass. Counter-ions that a name gives are not always drawn.

Experiments:
lymphoid leukemia L1210 = conditions: in vitro and in vivo; cited from earlier work
[1] = tested on: lymphocytic leukemia P388; experiment: In vivo antitumor activity against P388 leukemia in mice (ip, Q1Dx3); set-up: species or system mice (female CDF1); conditions: for T/C % of MST / prolongation of life-span in the P388-bearing mice: Q1Dx3, ip; for times less active than the parent compound in terms of minimum effective doses (MED): P388, vs elsamicin A
Experimental: (§1) Among the derivatives tested, in vivo antitumor activity of six derivatives showing relatively potent cytotoxicity was tested in the lymphocytic leukemia P388 and B16 melanoma systems. Female CDF1 (for P388) and male BDF1 (for B16) mice were inoculated by ip injection at 10^6 P388 cells and 0.5 ml of a 10% B16 brei per mouse, respectively (day 0). […] The percent increase of median survival time (MST) of treated animals over that of untreated control animals was determined and reported as T/C %. Compounds showing T/C % values of 125 or greater are considered to have significant antitumor activity. […] The others had no activity at the doses tested. Derivatives 4d4e, and 5 when tested in the B16 system, also gave 10- 30 times less antitumor activity than elsamicin A in terms of MED (Table 5).

leukemia P388 = conditions: in vitro and in vivo; cited from earlier work
[2] = tested on: aerobic gram-positive bacteria; conditions: cited from earlier work
melanotic melanoma B16 = conditions: in vitro and in vivo; cited from earlier work
[3] = tested on: murine melanoma B16-F10 cells; experiment: cells; conditions: Mus musculus, B16-F10, 72 h, read-out: Cytotoxicity IC50
Experimental: For in vitro cytotoxicity experiment, murine melanoma B16-F10 cells were grown and maintained in Eagle's minimum essential medium (Nissui), which contains kanamycin (60 μg/ml), supplemented with heat-inactivated fetal calf serum (10%) and nonessential amino acids (0.6%) at 37° C. under a humidified atmosphere in a 5% CO2 incubator, Exponentially growing B16-F10 cells were harvested, counted and suspended in the culture medium at the concentration of 2.0×10^4 cells/ml. The cell suspension (180 μl) was planted into wells of a 96-well microtiter plate and incubated for 24 hours. Test compounds (20 μl) were added to the wells and the plates were further incubated for 72 hours. The cytotoxic activity was colorimetrically determined at 540 nm after staining viable cells with neutral red solution.

anaerobic bacteria = conditions: cited from earlier work
B16 melanoma = experiment: In vivo antitumor activity against B16 melanoma in mice (ip, Q4Dx3); set-up: species or system mice (male BDF1); conditions: for times less antitumor activity than elsamicin A in terms of MED: B16, vs elsamicin A
Experimental: as §1

Row | SMILES | T/C % of MST ([1]; 0.1 mg/kg/day) | T/C % of MST ([1]; 0.3 mg/kg/day) | T/C % of MST ([1]; 1 mg/kg/day) | T/C % of MST ([1]; 3 mg/kg/day) | T/C % of MST ([1]; 10 mg/kg/day) | T/C % of MST (B16 melanoma; 0.3 mg/kg/day, Q4Dx3 ip) | T/C % of MST (B16 melanoma; 1 mg/kg/day, Q4Dx3 ip) | T/C % of MST (B16 melanoma; 3 mg/kg/day, Q4Dx3 ip) | T/C % of MST (B16 melanoma; 10 mg/kg/day, Q4Dx3 ip) | times less active than the parent compound in terms of minimum effective doses (MED) [1] | prolongation of life-span in the P388-bearing mice [1] | times less antitumor activity than elsamicin A in terms of MED (B16 melanoma) | further results
1 | CO[C@@H]1[C@@H](N)[C@@H](O[C@H]2[C@H](Oc3cccc4c(O)c5c(=O)oc6ccc(C)c7c(=O)oc(c34)c5c67)O[C@H](C)[C@H](O)[C@]2(C)O)O[C@H](C)[C@@H]1O [Compound 1, Elsamicin A] | 120% | 137% | 150% | 170% | 205% | 128% | 168% | 208% | ≥ 282% | – | – | – | activity against murine tumor cells (lymphoid leukemia L1210): exerts activity; T/C % of MST ([1]; 20 mg/kg/day): Tox; activity against murine tumor cells (leukemia P388): exerts activity; antibacterial activity [2]: exhibits antibacterial activity; activity against murine tumor cells (melanotic melanoma B16): exerts activity; IC50 [3]: 0.07 µg/mL (≈ 0.107 µM); antibacterial activity (anaerobic bacteria): exhibits antibacterial activity; T/C % of MST (B16 melanoma; 0.1 mg/kg/day, Q4Dx3 ip): 115%; No. of survivors/tested on day 50 (B16 melanoma; 10 mg/kg/day, Q4Dx3 ip, day 50): 4/8
2 | CO[C@H]1[C@@H](O)[C@@H](C)O[C@H](O[C@H]2[C@H](Oc3cccc4c(O)c5c(=O)oc6ccc(C)c7c(=O)oc(c34)c5c67)O[C@H](C)[C@H](O)[C@]2(C)O)[C@@H]1NC(=O)CN [Compound 3d, 2"-N-Glycylelsamicin A] | – | – | 95% | 110% | 110% | – | – | – | – | – | – | – | –
3 | CO[C@H]1[C@@H](O)[C@@H](C)O[C@H](O[C@H]2[C@H](Oc3cccc4c(O)c5c(=O)oc6ccc(C)c7c(=O)oc(c34)c5c67)O[C@H](C)[C@H](O)[C@]2(C)O)[C@@H]1NC(C)C [Compound 4a, 2"-N-Isopropylelsamicin A] | – | – | 110% | 120% | 140% | – | – | – | – | 10-30 times | quite limited prolongation of life-span | – | –
4 | CN[C@H]1[C@@H](O[C@H]2[C@H](Oc3cccc4c(O)c5c(=O)oc6ccc(C)c7c(=O)oc(c34)c5c67)O[C@H](C)[C@H](O)[C@]2(C)O)O[C@H](C)[C@H](O)[C@@H]1OC [Compound 4d, 2"-N-Methylelsamicin A] | 100% | 100% | 120% | 130% | 145% | 106% | 100% | 115% | 135% | 10-30 times | quite limited prolongation of life-span | 10- 30 times | –
5 | CO[C@H]1[C@@H](O)[C@@H](C)O[C@H](O[C@H]2[C@H](Oc3cccc4c(O)c5c(=O)oc6ccc(C)c7c(=O)oc(c34)c5c67)O[C@H](C)[C@H](O)[C@]2(C)O)[C@@H]1N(C)C [Compound 4e, 2"-N,N-Dimethylelsamicin A] | – | – | 110% | 130% | 140% | – | 103% | 109% | 132% | 10-30 times | quite limited prolongation of life-span | 10- 30 times | –
6 | CO[C@H]1[C@@H](O)[C@@H](C)O[C@H](O[C@H]2[C@H](Oc3cccc4c(O)c5c(=O)oc6ccc(C)c7c(=O)oc(c34)c5c67)O[C@H](C)[C@H](O)[C@]2(C)O)[C@@H]1N1CCOCC1 [Compound 4f, 2"-Deamino-2"-morpholinoelsamicin A] | – | – | 100% | 105% | 100% | – | – | – | – | – | – | – | –
7 | CO[C@H]1[C@@H](O)[C@@H](C)O[C@H](O[C@H]2[C@H](Oc3cccc4c(O)c5c(=O)oc6ccc(C)c7c(=O)oc(c34)c5c67)O[C@H](C)[C@H](O)[C@]2(C)O)[C@@H]1NC=N [Compound 5, 2"-N-Formimidoylelsamicin A hydrochloride] | 100% | 100% | 120% | 130% | 140% | 100% | 103% | 126% | 150% | 10-30 times | quite limited prolongation of life-span | 10- 30 times | –
